Results: patent publication US20260174857A1, “METHODS OF ADJUVANT TREATMENT FOR ALLERGY IMMUNOTHERAPY” (Revelation Biosciences, Inc., priority 2022, published 2026)

Assays:
TLR4 [1] = target: T1, TLR4 (Rattus norvegicus, UniProt Q9QX05); experiment: IL-6 and IL-10 cytokine response after IV administration in rats; assay type: in vivo
T1 construct: from tissue; host or cells: whole animal (rat), in vivo
T1 sequence (Q9QX05 26-835): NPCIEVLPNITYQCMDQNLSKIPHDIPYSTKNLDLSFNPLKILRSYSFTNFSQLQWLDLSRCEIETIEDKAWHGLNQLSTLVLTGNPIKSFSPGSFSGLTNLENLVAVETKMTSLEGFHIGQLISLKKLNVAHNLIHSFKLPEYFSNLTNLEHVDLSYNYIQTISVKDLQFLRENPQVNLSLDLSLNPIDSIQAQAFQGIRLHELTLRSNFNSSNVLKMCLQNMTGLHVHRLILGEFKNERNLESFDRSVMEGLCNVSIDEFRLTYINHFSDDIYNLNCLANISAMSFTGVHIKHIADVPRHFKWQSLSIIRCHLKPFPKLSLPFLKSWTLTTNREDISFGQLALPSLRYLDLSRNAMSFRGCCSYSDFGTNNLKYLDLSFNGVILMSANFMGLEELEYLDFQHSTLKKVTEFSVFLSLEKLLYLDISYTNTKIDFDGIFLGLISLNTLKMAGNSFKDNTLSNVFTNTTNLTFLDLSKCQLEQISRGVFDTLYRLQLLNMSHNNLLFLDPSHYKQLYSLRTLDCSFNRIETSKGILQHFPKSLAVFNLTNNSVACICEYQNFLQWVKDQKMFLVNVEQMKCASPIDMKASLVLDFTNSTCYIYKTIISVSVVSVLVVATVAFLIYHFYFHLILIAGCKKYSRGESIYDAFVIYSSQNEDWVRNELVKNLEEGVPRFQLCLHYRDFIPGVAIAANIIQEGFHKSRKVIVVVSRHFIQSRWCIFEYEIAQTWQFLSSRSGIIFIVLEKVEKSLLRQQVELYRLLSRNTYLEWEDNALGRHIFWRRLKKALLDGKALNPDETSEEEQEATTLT
Text: (§1) IP-10 is an important cytokine associated with stimulation of the TRIF pathway. Evidence of IL-6 and IL-10 and IP-10 upregulation is confirmation that PHAD preparations as noted in this application are capable of TLR4 stimulation, with a bias toward stimulating the TRIF pathway, which is further confirmation of the amelioration or reduction of activity mediated through the MyD88 signaling pathway, which supports the amelioration of pro-inflammatory cytokine production.

TLR4 [2] = target: T2, TLR4 (Mus musculus, UniProt Q9JHF9+Q9QUK6); experiment: in vitro cell based activity assay, IP-10 upregulation in mouse macrophages (J774 cell line)
T2 construct: endogenous in cells; host or cells: J774 mouse macrophage cell line
T2 sequence (Q9QUK6 26-835): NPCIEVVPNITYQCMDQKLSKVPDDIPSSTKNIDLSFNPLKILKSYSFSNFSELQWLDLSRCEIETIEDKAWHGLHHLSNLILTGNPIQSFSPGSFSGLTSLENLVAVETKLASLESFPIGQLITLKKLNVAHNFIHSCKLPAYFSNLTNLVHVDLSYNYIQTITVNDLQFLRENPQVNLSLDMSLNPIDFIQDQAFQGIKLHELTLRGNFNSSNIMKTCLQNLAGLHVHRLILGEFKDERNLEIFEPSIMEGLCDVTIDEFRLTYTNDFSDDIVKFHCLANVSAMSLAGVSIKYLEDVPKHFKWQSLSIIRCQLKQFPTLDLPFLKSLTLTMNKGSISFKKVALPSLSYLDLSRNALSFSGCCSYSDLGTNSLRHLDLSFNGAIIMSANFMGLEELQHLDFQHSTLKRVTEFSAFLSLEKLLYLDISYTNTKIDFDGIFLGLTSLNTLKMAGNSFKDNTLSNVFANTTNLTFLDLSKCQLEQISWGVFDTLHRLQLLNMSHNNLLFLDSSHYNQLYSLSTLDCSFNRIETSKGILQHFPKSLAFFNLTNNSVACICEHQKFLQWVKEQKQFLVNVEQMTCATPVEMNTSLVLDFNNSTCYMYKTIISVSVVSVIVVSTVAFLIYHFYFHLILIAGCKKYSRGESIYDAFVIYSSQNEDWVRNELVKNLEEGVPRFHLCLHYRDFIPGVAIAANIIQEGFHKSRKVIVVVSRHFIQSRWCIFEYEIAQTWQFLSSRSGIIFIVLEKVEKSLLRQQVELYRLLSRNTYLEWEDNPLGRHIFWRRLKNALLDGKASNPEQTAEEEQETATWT
T2 sequence (Q9JHF9 19-160): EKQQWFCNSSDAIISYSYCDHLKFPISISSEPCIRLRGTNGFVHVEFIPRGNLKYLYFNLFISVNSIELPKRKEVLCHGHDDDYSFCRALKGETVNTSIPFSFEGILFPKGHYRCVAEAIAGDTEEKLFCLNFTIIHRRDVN
Text: Interferon-β is required for production of IP-10, therefore IP-10 is considered a surrogate marker for Type I interferon activity.
as §1

[3] = second dose at 24 hours, compared with first dose

phosphorylated hexaacyl disaccharide [PHAD]
anti-inflammatory cytokines (e.g., IL-10) following a second dose (TLR4 [1]; [3]): larger increase
pro-inflammatory cytokines (e.g., IL-6) following a second dose (TLR4 [1]; [3]): smaller increase
inflammatory and protective cytokines following a first dose (TLR4 [1]; two doses of PHAD, after first dose): initial increase
upregulation of IP-10 as a result of TLR4 stimulation (TLR4 [2]): IP-10 upregulation as a function of dose
